For one series, the system named is HeLa. Briefly: Transfection efficiency with Luciferase-mRNA (SecNLuc), Nano-Glo assay. Format: cell-based. Conditions: 24 hours, luminescence (Nano-Glo); for Transfection 10 ng mRNA: 10 ng SecNLuc mRNA/well; for Transfection 50 ng mRNA: 50 ng SecNLuc mRNA/well; for Transfection 100 ng mRNA: 100 ng SecNLuc mRNA/well. As for the experimental part: • 1. Prepare mRNA solution by adding 100 ng mRNA (SecNLuc, #P009024, RiboPro) to 5 µl Opti-MEM • multiply by number of wells, include different concentrations and add 10% extra • a standard set-up we use is 100 ng - 50 ng - 10 ng mRNA/well in triplicate, which would need […] mRNA (includes 10% extra)
• 2. (If applicable) Prepare different concentrations in Opti-MEM (for instance 100/50/10 ng). • 3. Add 10 µl to each well and mix carefully by pipetting. • 4. Mix by swirling the plate horizontally at modest speed. Reverse in direction 3 times. • 5. Incubate for 24 hours (incubator).
This protocol is applied to measure luciferase activity for secreted NanoLuc and is based on the protocol by Promega (Nano-Glo® Luciferase Assay System #N1110-1150). The protocol is designed for a 384-wells plate, but volumes can be changed accordingly for other plates.
• 1. Plate cells (HeLa) in 96-well plate, grow until 80% confluent and transfect with SecNanoLuc mRNA and incubate for the desired period (24h). • 2. After incubation, the translated protein is accumulated in the medium. Transfer medium to a new plate or tubes . • 3. Transfer 12 µl of each sample to a black-walled, clear-bottom 384-well plate Black-walled plates are important to prevent shine-through of luminescence from other wells; alternatively, multiple wells between samples can be left empty. • 4. Set-up plate reader • 5. Prepare the desired amount of Nano-Gio® Luciferase Assay Reagent by combining one volume of Nano-Glo® Luciferase Assay Substrate with 50 volumes of Nano-Glo® Luciferase Assay Buffer: • a. composition: 100 mM MES pH 6; 1 mM EDTA; 0.5% […]; 150 mM KCl; 1 mM DTT; 35 mM Thiourea; • b. briefly spin tubes containing substrate in a microcentrifuge before use. • 6. Add and mix (by pipetting) 12 µl Nano-Glo® Luciferase Assay Reagent per well • Wait approximately 3 minutes before measuring luminescence. The luminescence intensity will decay gradually, with a signal half-life of approximately 120 minutes at room temperature. • 7. Measure luminescence in plate reader using standard protocol luciferase (this includes mixing sample in plate reader)

Series [1] in a line: Encapsulation efficiency (RiboGreen assay) of mRNA-LNPs. In kind it is physicochemical. The note with it: mRNA-LNP formulated with tested lipid; RiboGreen with/without Triton X-100. The method, then:
1. Preparation of sample stock solutions: In the top row of the 96-well plate (Row A in the plate), add 297 µL of TE buffer pH 7.4 to a single well for each sample plus a single well for a PBS blank using a multichannel pipette. TE buffer preparation:
2. Add 3 µL of sample (at 0.5mg/ml) to these wells for a final volume of 300 µL. Add 3 µL of PBS to the blank well. Pipette to mix. This is your stock solution for each sample. The final RNA concentration of these stock solutions should be approximately 4-7 µg/mL. 3. mRNA-LNP sample setup: • a. Add 50 µL of TE buffer pH 7.5 to the two wells directly below each sample (Rows B and C in the plate). • b. Add 50 µL of sample stock solution from Row A into the wells in Rows B and C (this assay is run in duplicate. All liquid handling should be done using a multichannel pipette). • c. Add 50 µL of Triton buffer to the wells in Rows D and E (in the plate) below each sample. • d. Add 50 µL of sample stock solution from Row A into the wells in Rows D and E. 4. RiboGreen RNA standard curve setup: Dilute the RNA standard to produce an RNA stock at a final concentration of 20 µg/mL in TE buffer pH 7.4. The final volume should be 150 µL. Set up a standard curve (in duplicate) as using the RNA stock (20 µg/mL siRNA), TE buffer pH 7.5, and Triton X-100 buffer according the Table 2 below. Triton X-100 buffer preparation:
5. Once samples and standard curve are plated, incubate the plate at 37°C for 10 min to lyse mRNA-LNP in the presence of Triton X-100 buffer. 6. Meanwhile, prepare RiboGreen Solution: Sum the total number of sample wells and standard curve wells. Add three to this number, and multiply the total by 100. This is the total volume, in µL, of RiboGreen Solution needed for this assay. In a 15 mL RNAse-free Falcon tube, dilute the RiboGreen Reagent 1:100 into TE buffer pH 7.5 to the total volume calculated. 7. Addition of RiboGreen Solution and sample readings: Remove a 96-well plate from 37°C incubator; let it cool to room temperature as RiboGreen binding is somewhat temperature dependent. Add 100 µL of RiboGreen Solution to each well. Pop any air bubbles with a needle. Read using fluorescent plate reader (excitation = 480, emission = 525). 8. Sample analysis: Use the data generated by the RiboGreen standard curve to calculate the concentration of mRNA.

With `CCCCCCCCCCSC(CCCCCC)C(=O)OCCCCCCN(CCCCO)CCCCCCOC(=O)C(CCCCCC)SCCCCCCCCCC` (centres unmarked) [Example 8, ((4-hydroxybutyl)azanediyl)bis(hexane-6,1-diyl) bis(2-(decylthio)octanoate)], in the series on HeLa, the “Transfection 10 ng mRNA” value is 2,80E+06, the “Transfection 50 ng mRNA” value is listed as 1,36E+07 and the “Transfection 100 ng mRNA” value is given as 1,11E+07. The EE in series [1] amounted to 86%.

For the compound `CCCCCCCCC(SCCCCCCC)C(=O)OCCCCCCN(CCCCO)CCCCCCOC(=O)C(CCCCCCCC)SCCCCCCC` (centres unmarked) [Example 6, ((4-hydroxybutyl)azanediyl)bis(hexane-6,1-diyl) bis(2-(heptylthio)decanoate)], in the series on HeLa, the “Transfection 10 ng mRNA” value is given as 3,47E+06, the “Transfection 50 ng mRNA” value is given as 1,83E+07 and the “Transfection 100 ng mRNA” value is listed as 2,52E+07. This compound also showed an EE in series [1] of 90%.

For the compound `CCCCCCCSC(CCCCCC)C(=O)OCCCCCCN(CCCCO)CCCCCCOC(=O)C(CCCCCC)SCCCCCCC` (centres unmarked) [Example 9, ((4-hydroxybutyl)azanediyl)bis(hexane-6,1-diyl) bis(2-(heptylthio)octanoate)], in the series on HeLa, the “Transfection 10 ng mRNA” value is 2,79E+06, the “Transfection 50 ng mRNA” value is given as 1,36E+07 and the “Transfection 100 ng mRNA” value is listed as 1,43E+07. The same compound showed an EE in series [1] of 67%.

For `CCCCCCCCC(CCCCCC)C(=O)OCCCCCCN(CCCCO)CCCCCCOC(=O)C(CCCCCC)CCCCCCCC` (centres unmarked) [ALC-0315 ref., reference compound], in the series with HeLa, the “Transfection 10 ng mRNA” value is listed as 3,21E+06, the “Transfection 50 ng mRNA” value is on record as 1.47E+07 and the “Transfection 100 ng mRNA” value is given as 1,04E+07. Moreover, the EE in series [1] came out at 94%.

As to `CCCCCCCCCCSC(CCCCCCCC)C(=O)OCCCCCCN(CCCCO)CCCCCCOC(=O)C(CCCCCCCC)SCCCCCCCCCC` (centres unmarked) [Example 7, ((4-hydroxybutyl)azanediyl)bis(hexane-6,1-diyl) bis(2-(decylthio)decanoate)], in the series on HeLa, the “Transfection 10 ng mRNA” value was 1,62E+06, the “Transfection 50 ng mRNA” value is on record as 1,47E+07 and the “Transfection 100 ng mRNA” value is given as 2,01E+07. For the same compound, the EE in series [1] is on record as 92%.

Regarding `CCCCCCCCCCCCCCSCC(=O)OCCCCCCN(CCCCO)CCCCCCOC(=O)CSCCCCCCCCCCCCCC` [Example 10, ((4-hydroxybutyl)azanediyl)bis(hexane-6,1-diyl) bis(2-(tetradecylthio)acetate)], in the series with HeLa, the “Transfection 10 ng mRNA” value is 2,92E+05, the “Transfection 50 ng mRNA” value is listed as 3,57E+06 and the “Transfection 100 ng mRNA” value was 1,10E+07. The compound further showed an EE in series [1] of 83%.

In the case of `CCCCCCCCCCSC(CCCC)C(=O)OCCCCCCN(CCCCO)CCCCCCOC(=O)C(CCCC)SCCCCCCCCCC` (centres unmarked) [Example 1, ((4-hydroxybutyl)azanediyl)bis(hexane-6,1-diyl) bis(2-(decylthio)hexanoate)], in the series on HeLa, the “Transfection 10 ng mRNA” value was 3,81E+06, the “Transfection 50 ng mRNA” value is 1,83E+07 and the “Transfection 100 ng mRNA” value is listed as 1,69E+07. For the same compound, in series [1], the EE is given as 53%.

For `CCCCCCCCCCSC(CCCC)C(=O)OCCCCCCCCN(CCCCO)CCCCCCCCOC(=O)C(CCCC)SCCCCCCCCCC` (centres unmarked) [Example 3, ((4-hydroxybutyl)azanediyl)bis(octane-8,1-diyl) bis(2-(decylthio)hexanoate)], in the series with HeLa, the “Transfection 10 ng mRNA” value is reported as 9,69E+05, the “Transfection 50 ng mRNA” value is 1,02E+07 and the “Transfection 100 ng mRNA” value is on record as 1,37E+07. In series [1], this compound came in with an EE of 77%.

For the compound `CCCCCCCCC(SCCCCC)C(=O)OCCCCCCN(CCCCO)CCCCCCOC(=O)C(CCCCCCCC)SCCCCC` (centres unmarked) [Example 2, ((4-hydroxybutyl)azanediyl)bis(hexane-6,1-diyl) bis(2-(pentylthio)decanoate)], in the series on HeLa, the “Transfection 10 ng mRNA” value is recorded as 2,40E+06, the “Transfection 50 ng mRNA” value is 1,60E+07 and the “Transfection 100 ng mRNA” value is on record as 1,39E+07. In series [1], this compound gave an EE of 55%.

In the case of `CCCCCCCCCCSC(CCCC)C(=O)OCCCCCCN(CCO)CCCCCCOC(=O)C(CCCC)SCCCCCCCCCC` (centres unmarked) [Example 4, ((2-hydroxyethyl)azanediyl)bis(hexane-6,1-diyl) bis(2-(decylthio)hexanoate)], in the series on HeLa, the “Transfection 10 ng mRNA” value is 2,53E+06, the “Transfection 50 ng mRNA” value is on record as 1,23E+07 and the “Transfection 100 ng mRNA” value was 8,17E+06. Moreover, the EE in series [1] was 85%.

As for `CCCCCCCCCCSC(CCCC)C(=O)OCCCCCCN(CCCCCCOC(=O)C(CCCC)SCCCCCCCCCC)CCC1CCCN1C` (centres unmarked) [Example 5, ((2-(1-methylpyrrolidin-2-yl)ethyl)azanediyl)bis(hexane-6,1-diyl) bis(2-(decylthio)hexanoate)], in the series on HeLa, the “Transfection 10 ng mRNA” value was 4,17E+05, the “Transfection 50 ng mRNA” value is 3,34E+06 and the “Transfection 100 ng mRNA” value is recorded as 6,52E+06. For the same compound, in series [1], the EE amounted to 96%.

For the origin of these results see patent EP4559898A1, “NOVEL IONIZABLE CATIONIC LIPIDS CONTAINING THIOETHER LINKAGE” (AldexChem Kft., priority 2023, dated 2025).
